The subject of data set [1] is monomeric α-syn. Nature of the data set: Affinity of negative-control peptide to monomeric α-syn (method not given). Type of data set: binding. The following applies: negative-control peptide kgvgnleyqlwalegk-NH2; method not stated.
For data set [2], the system named is α-synA53T–YFP (HEK293T cells). Nature of the data set: Seeded intracellular aggregation in α-synA53T–YFP cells. Type of data set: cell-based, human. The note with it: day 3. An excerpt:
Fig. 5 SVD-1a inhibits seeded α-syn aggregation in cells. To validate the inhibitory effect of SVD-1a in cells, we used the α-synA53T–YFP cell system, which stably expresses human α-syn with the familial A53T mutation fused to YFP in HEK293T cells and enables fluorescence-based detection of aggregates that show up as highly fluorescent spots within the cells, clearly above background, intracellularly after seeding with small α-syn PFF seeds. In order to avoid interference of the peptide with the uptake of small α-syn PFF seeds, we performed a two-step transfection starting with a first transfection of the peptide and a second transfection with PFFs. […] To quantify the number of cells with aggregates in our images and to avoid experimental bias, we used a fully automated algorithm for image analysis. […] One asterisk denotes p values < 0.05 and three asterisks a p value < 0.001. Error bars indicate standard deviation. […] Treatment with increasing concentrations of SVD-1a, here imaged at 25 µM, led to a concentration-dependent reduction in the number of cells with aggregates (H-J). Panels B, E, and H show nuclei stained with Hoechst 33342. Panels C, F, and I show αSynA53T–YFP fluorescence. Panels D, G, and J show merged images. The scale bar in J represents 100 µm and applies to all panels. The viability of the cells was not reduced by transfection with seeds or in SVD-1a, as shown in Supplementary Fig. 15. Confirmation that highly fluorescent aggregates contain α-syn is shown in Supplementary Fig. 14 by co-immunostaining with syn-211 antibody, anti-α-syn (phospho S129) antibody and 5G4 antibody.
A construct encoding full-length A53T-mutated human α-syn fused with YFP at the C-terminus was synthesized and introduced into the pMK–RQ expression vector (GeneArt; Thermo Fisher Scientific, USA). The α-synA53T–YFP construct was subcloned into the pIRESpuro3 vector (Clontech; Takara Bio, JPN) using NheI (5′) and NotI (3′) restriction sites. HEK293T cells (American Type Culture Collection) were cultured in high-glucose Dulbecco’s modified Eagle’s medium (DMEM; Sigma-Aldrich, USA) supplemented with 10% fetal calf serum (Sigma-Aldrich, USA), and 50 units/ml penicillin as well as 50 μg/ml streptomycin (Sigma-Aldrich, USA). Cells were cultured in a humidified atmosphere of 5% CO2 at 37 °C. Cells plated in DMEM were transfected using Lipofectamine 2000 (Invitrogen; Thermo Fisher Scientific, USA). Stable cells were selected in DMEM containing 1 μg/ml puromycin (EMD Millipore, USA). Monoclonal lines were generated by fluorescence-activated cell sorting of a polyclonal cell population in 96-well plates using a MoFlo XDP cell sorter (Beckman Coulter, USA). Finally, the clonal cell line B5 was selected from among 24 clonal cell lines and is referred to as αSynA53T–YFP cells. Peptides were incubated with 1.5% Lipofectamine 2000 in OptiMEM for 2 h at room temperature. […] On day 3 the cells were imaged with an IN Cell Analyzer 6500HS System (Cytiva, USA) using the blue and green fluorescence channel, and analyzed using IN Carta Image Analysis Software (Cytiva, USA) after an algorithm was established to identify intracellular aggregates in living cells. For each condition, we used four wells and took 16 images per well, which were analyzed by a fully automated algorithm to avoid bias. […]

Data set [3] has as its system α-synA53T–YFP cells (HEK293T).
In data set [4] the test system is PC12 cells. In kind it is cell-based. The note with it: 15 µM peptide with 30 nM PFF; n = 4. On the procedure: PC12 cells (Leibniz Institute DSMZ, GE) were cultivated on collagen A-coated (Biochrom GmbH, GE) tissue culture flasks in RPMI 1640 medium supplemented with 5% fetal calf serum and 10% horse serum in a 95% humidified atmosphere with 5% CO2 at 37 °C. 10,000 cells per well in a volume of 100 µl were seeded on collagen A-coated 96-well plates (Thermo Fisher Scientific, USA) and were incubated for 24 h at 37 °C and 300 rpm in a thermo cycler. […] In addition, 15 µM of the peptides alone, cell media, buffer without peptides and 0.1% Triton X-100 (cytotoxic compound) served as controls. After further incubation in a 95% humidified atmosphere with 5% CO2 at 37 °C for 24 h, cell viability was measured using the Cell Proliferation Kit I (MTT) (Roche Applied Science, CH) according to the manufacturer’s protocol. The MTT formazan product was quantified by measuring the absorbance at 570 nm corrected by subtraction of the absorbance at 660 nm in a FLUOStar Optima plate reader (BMG Labtech, GE). All results were normalized to untreated cells grown in medium only. Test on significance was performed using one-way ANOVA with Bonferroni post hoc analysis (OriginPro 2020, OriginLab, USA; n = 4).
Test on significance was performed using one-way ANOVA with Bonferroni post hoc analysis: * […], *** p ≤ 0.01. Mean data are shown with ±SD (n = 4). While the cell viability was reduced by 50 % in the presence of 30 nM soluble small α-syn PFF alone, no toxic effect of the compounds on PC12 was observed. […] Thus, similar cell viability saving effects were found for SVD-1a using a 30-fold lower concentration.

Data set [5] concerns small α-syn PFF seeds. The data set is described as follows: Seeded ThT aggregation assay. The following applies: discussion statement. In kind it is biochemical. How it is done: The Thioflavin T (ThT) assay is commonly used for the visualization of α-syn fibrilization, since the dye ThT is able to bind to the amyloidogenic cross-β-sheet proportions of fibril structures. Recombinant α-syn was thawed on ice and centrifuged for 30 min at 21,000 × g and 4 °C. The concentration of the supernatant was determined as described previously. Lyophilized D-peptides were thawed at RT for 1 h and dissolved in 500 µl PBS pH 7.4. After centrifugation for 30 min at 21,000 × g the supernatant concentration was determined by UV–vis using the corresponding extinction coefficient at A280. All ThT assay experiments were performed at 37 °C with 15 µM ThT and 0.05% sodium azide (w/v) in PBS pH 7.4 if not otherwise stated. ThT fluorescence was monitored with bottom optics at λex = 448 nm and λem = 482 nm in a fluorescence plate reader with orbital averaging on 3 mm (Clariostar or Polarstar Optima, BMG labtech, GE). Prior to measurement start, 120 µl sample solution was transferred to a non-binding 96-half area well plate with transparent flat bottom (Corning, USA). One borosilicate glass bead (d = 3.0 mm, Hilgenberg, GE) was added to each well for all de novo aggregation assays. For seeded aggregation assays, no bead was used, and samples were incubated under quiescent conditions. Wells that surrounded the sample wells were filled with the same volume of buffer to improve heat distribution. Experiments were performed with five replicates (n = 5) if not otherwise stated.
ThT assay was used for different purposes. […] Lag-time and t½ were calculated as described previously. […] Measurements were taken every 5 min (n = 3).
small α-syn PFF seeds were prepared as described previously with some modifications. First, insoluble PFF were produced by incubation of 300 µM recombinant α-syn in a LoBind reaction tube (Eppendorf GmbH, GE) with one borosilicate glass bead (d = 3.0 mm; Hilgenberg, DE) in 20 mM NaPi, pH 7.0, 150 mM NaCl, 0.05% (w/v) sodium azide for one week at 37 °C. The insoluble PFF were harvested by ultracentrifugation at 100,000 × g for 30 min at 4 °C, and the pellet was washed several times with 20 mM NaPi, pH 7.0, 150 mM NaCl. The monomer equivalent concentration was determined by measuring the α-syn concentration in the supernatant after the first centrifugation and subtracting it from the start concentration for fibrilization. […]
ThT fluorescence progression was measured in a 96-well non-binding half-area plate (Corning, USA) with a FLUOStar platereader (BMG labtech, GE) at λex = 448 nm and λem = 482 nm. […] 10 µM α-syn monomer was incubated with 5, 10 and 20 µM peptide at 37 °C, adding one borosilicate glass bead per well (d = 3.0 mm, Hilgenberg, GE) with continuous orbital shaking at 300 rpm in between reads. […]

Regarding “kgvgnleyqlwalegk-NH2 [negative-control peptide, reference compound]”, the “affinity to monomeric α-syn” value in data set [1] is “no affinity to monomeric α-syn”. Besides, the aggregate-positive cells in data set [2] (25 µM peptide, transfected, then 30 nM small α-syn PFF seeds) is on record as 85%. In addition, the “inhibition of intracellular seeded α-syn aggregation” value in data set [2] (peptide transfection, then 30 nM PFF seeds) is “not”. For the same substance, the “cell viability, PFF-seeded α-synA53T–YFP cells” value in data set [3] is on record as “did not induce significantly different luminescence in comparison to unseeded cells or seeded cells without peptide treatment”.
For the substance “ihyawtphtkhmqewe-NH2 [SVD-1_scrambled, reference compound]”, the “cell viability saving effect” value in data set [4] is “Slight increase of cell viability saving effect”.
Turning to “ihyawtphtrhlqewerrrrr-NH2 [SVD-1_scrambled+5r, reference compound]”, in data set [5], the “effect of control peptide relative to SVD-1 in seeded assay” value is listed as “improved effects compared to the parental sequence SVD-1 in the seeded assay”.

For the origin of these results see publication PMC12454639, “Direct disassembly of α-syn preformed fibrils into α-syn monomers by an all-D-peptide” (NPJ Parkinson's Disease, 2025).
